Target: GCN2 (Homo sapiens (Human), UniProt Q9P2K8)
Test: GCN2 Biochemical Assay (TR-FRET, GFP-eIF2S1 substrate phosphorylation)
Details: read-out: IC50 (GCN2 Inhibitory Activity)
How it was run: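 In-house GCN2 (1.6 nM 2× stock) phosphorylates GFP-eIF2S1 (50 nM 2× stock) with ATP (0.2 mM 2× stock) and tRNA, pH 7.5, 70 min at room temperature; 10-point 3.16-fold compound series. TR-FRET detection with Tb-anti-phospho antibody, 2–3 h, Ex 340/Em 490/520 nm; artifact plate spiked with phospho-substrate.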

Sequence of GCN2 (Q9P2K8 whole entry): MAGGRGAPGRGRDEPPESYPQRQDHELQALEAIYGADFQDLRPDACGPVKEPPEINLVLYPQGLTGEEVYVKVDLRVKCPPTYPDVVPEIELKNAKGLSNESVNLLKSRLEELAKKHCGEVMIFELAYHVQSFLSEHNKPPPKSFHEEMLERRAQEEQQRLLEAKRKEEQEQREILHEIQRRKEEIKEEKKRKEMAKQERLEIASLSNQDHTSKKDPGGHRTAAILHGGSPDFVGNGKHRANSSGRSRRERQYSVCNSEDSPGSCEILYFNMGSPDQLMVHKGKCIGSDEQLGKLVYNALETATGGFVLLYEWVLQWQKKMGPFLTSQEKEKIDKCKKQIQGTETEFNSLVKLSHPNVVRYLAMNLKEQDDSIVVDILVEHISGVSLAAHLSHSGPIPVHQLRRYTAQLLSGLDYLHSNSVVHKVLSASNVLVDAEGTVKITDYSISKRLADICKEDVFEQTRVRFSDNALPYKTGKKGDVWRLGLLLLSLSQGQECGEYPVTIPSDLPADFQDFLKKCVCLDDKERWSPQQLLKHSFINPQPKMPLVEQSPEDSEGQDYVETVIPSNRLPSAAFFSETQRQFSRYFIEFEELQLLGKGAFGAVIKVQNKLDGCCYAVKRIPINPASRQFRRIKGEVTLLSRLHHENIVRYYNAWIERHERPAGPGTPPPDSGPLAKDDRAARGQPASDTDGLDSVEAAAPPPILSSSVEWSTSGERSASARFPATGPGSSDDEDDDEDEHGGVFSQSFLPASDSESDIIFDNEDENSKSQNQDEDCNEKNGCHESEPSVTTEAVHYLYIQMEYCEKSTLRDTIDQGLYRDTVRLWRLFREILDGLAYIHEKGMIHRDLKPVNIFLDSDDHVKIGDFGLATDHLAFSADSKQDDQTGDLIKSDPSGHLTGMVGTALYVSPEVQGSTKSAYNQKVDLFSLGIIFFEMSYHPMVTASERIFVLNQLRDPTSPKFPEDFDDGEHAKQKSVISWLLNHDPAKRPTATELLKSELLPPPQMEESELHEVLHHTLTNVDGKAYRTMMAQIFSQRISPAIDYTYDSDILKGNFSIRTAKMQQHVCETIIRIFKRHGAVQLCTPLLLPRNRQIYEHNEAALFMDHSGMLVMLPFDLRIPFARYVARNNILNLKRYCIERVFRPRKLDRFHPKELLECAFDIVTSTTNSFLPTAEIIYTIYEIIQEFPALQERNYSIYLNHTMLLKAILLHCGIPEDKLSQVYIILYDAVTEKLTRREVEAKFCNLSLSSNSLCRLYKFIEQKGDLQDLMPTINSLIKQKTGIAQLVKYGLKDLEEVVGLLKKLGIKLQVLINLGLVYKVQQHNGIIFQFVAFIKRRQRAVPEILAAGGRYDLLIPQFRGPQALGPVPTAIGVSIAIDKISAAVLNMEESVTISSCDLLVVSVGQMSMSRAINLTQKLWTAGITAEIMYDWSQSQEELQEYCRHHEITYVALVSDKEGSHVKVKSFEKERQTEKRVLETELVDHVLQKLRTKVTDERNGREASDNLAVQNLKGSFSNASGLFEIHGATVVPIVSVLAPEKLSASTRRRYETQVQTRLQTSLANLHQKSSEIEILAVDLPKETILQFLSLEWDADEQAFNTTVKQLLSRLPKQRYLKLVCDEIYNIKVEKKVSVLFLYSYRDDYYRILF

SMILES | IC50 [nM]
Cc1cnc(Nc2cc(C)n(C)n2)nc1-c1c[nH]c2c(NC(=O)CN3CC[C@H](Oc4ccnc(NC(C)C(F)(F)F)n4)C3)cccc12 (stereo partly drawn) [Example 201, N-(3-(2-((1,5-dimethyl-1H-pyrazol-3-yl)amino)-5-methylpyrimidin-4-yl)-1H-indol-7-yl)-2-((3S)-3-((2-((1,1,1-trifluoropropan-2-yl)amino)pyrimidin-4-yl)oxy)pyrrolidin-1-yl)acetamide] | 10 to 100
Cc1cnc(Nc2cc(C)n(C)n2)nc1-c1c[nH]c2c(NC(=O)CN3CC[C@H](Oc4ccnc(NC5CC5)n4)C3)cccc12 [Example 207, (S)-2-(3-((2-(cyclopropylamino)pyrimidin-4-yl)oxy)pyrrolidin-1-yl)-N-(3-(2-((1,5-dimethyl-1H-pyrazol-3-yl)amino)-5-methylpyrimidin-4-yl)-1H-indol-7-yl)acetamide] | < 10
Cc1cnc(Nc2cc(C)n(C)n2)nc1-c1c[nH]c2c(NC(=O)CN3CC[C@H](Oc4ccnc(NC5CCC5)n4)C3)cccc12 [Example 208, (S)-2-(3-((2-(cyclobutylamino)pyrimidin-4-yl)oxy)pyrrolidin-1-yl)-N-(3-(2-((1,5-dimethyl-1H-pyrazol-3-yl)amino)-5-methylpyrimidin-4-yl)-1H-indol-7-yl)acetamide] | < 10
Cc1cnc(Nc2cc(C)n(C)n2)nc1-c1c[nH]c2c(NC(=O)CN3CC[C@H](Oc4ccnc(NC5CCCC5)n4)C3)cccc12 [Example 209, (S)-2-(3-((2-(cyclopentylamino)pyrimidin-4-yl)oxy)pyrrolidin-1-yl)-N-(3-(2-((1,5-dimethyl-1H-pyrazol-3-yl)amino)-5-methylpyrimidin-4-yl)-1H-indol-7-yl)acetamide] | 10 to 100
Cc1cnc(Nc2cc(C)n(C)n2)nc1-c1c[nH]c2c(NC(=O)CN3CC[C@H](Oc4ccnc(NC5CCCCC5)n4)C3)cccc12 [Example 210, (S)-2-(3-((2-(cyclohexylamino)pyrimidin-4-yl)oxy)pyrrolidin-1-yl)-N-(3-(2-((1,5-dimethyl-1H-pyrazol-3-yl)amino)-5-methylpyrimidin-4-yl)-1H-indol-7-yl)acetamide] | 10 to 100
Cc1cnc(Nc2cc(C)n(C)n2)nc1-c1c[nH]c2c(NC(=O)CN3CC[C@H](Oc4ccnc(NC(C)C)n4)C3)cccc12 [Example 211, (S)-N-(3-(2-((1,5-dimethyl-1H-pyrazol-3-yl)amino)-5-methylpyrimidin-4-yl)-1H-indol-7-yl)-2-(3-((2-(isopropylamino)pyrimidin-4-yl)oxy)pyrrolidin-1-yl)acetamide] | < 10
CCC(C)Nc1nccc(O[C@H]2CCN(CC(=O)Nc3cccc4c(-c5nc(Nc6cc(C)n(C)n6)ncc5C)c[nH]c34)C2)n1 (stereo partly drawn) [Example 212, 2-((3S)-3-((2-(sec-butylamino)pyrimidin-4-yl)oxy)pyrrolidin-1-yl)-N-(3-(2-((1,5-dimethyl-1H-pyrazol-3-yl)amino)-5-methylpyrimidin-4-yl)-1H-indol-7-yl)acetamide] | < 10
Cc1cnc(Nc2cc(C)n(C)n2)nc1-c1c[nH]c2c(NC(=O)CN3CC[C@H](Oc4ccnc(NCc5ccccc5)n4)C3)cccc12 [Example 214, (S)-2-(3-((2-(benzylamino)pyrimidin-4-yl)oxy)pyrrolidin-1-yl)-N-(3-(2-((1,5-dimethyl-1H-pyrazol-3-yl)amino)-5-methylpyrimidin-4-yl)-1H-indol-7-yl)acetamide] | < 10
CONc1nccc(O[C@H]2CCN(CC(=O)Nc3cccc4c(-c5nc(Nc6cc(C)n(C)n6)ncc5C)c[nH]c34)C2)n1 [Example 219, (S)-N-(3-(2-((1,5-dimethyl-1H-pyrazol-3-yl)amino)-5-methylpyrimidin-4-yl)-1H-indol-7-yl)-2-(3-((2-(methoxyamino)pyrimidin-4-yl)oxy)pyrrolidin-1-yl)acetamide] | < 10
Cc1cnc(Nc2cc(C)n(C)n2)nc1-c1c[nH]c2c(NC(=O)CN3CC[C@H](Oc4ccnc(N(C)C)n4)C3)cccc12 [Example 220, (S)-N-(3-(2-((1,5-dimethyl-1H-pyrazol-3-yl)amino)-5-methylpyrimidin-4-yl)-1H-indol-7-yl)-2-(3-((2-(dimethylamino)pyrimidin-4-yl)oxy)pyrrolidin-1-yl)acetamide] | 10 to 100
Cc1cnc(Nc2cc(C)n(C)n2)nc1-c1c[nH]c2c(NC(=O)CN3CC[C@H](Oc4ccnc(N(C)Cc5ccccc5)n4)C3)cccc12 [Example 221, (S)-2-(3-((2-(benzyl(methyl)amino)pyrimidin-4-yl)oxy)pyrrolidin-1-yl)-N-(3-(2-((1,5-dimethyl-1H-pyrazol-3-yl)amino)-5-methylpyrimidin-4-yl)-1H-indol-7-yl)acetamide] | 100 to 1000

The next lines start with the values.

IC50 [nM] | SMILES
< 10 | Cc1cnc(Nc2cc(C)n(C)n2)nc1-c1c[nH]c2c(NC(=O)CN3CC[C@H](Oc4ccnc(NCC(F)(F)F)n4)C3)cccc12 [Example 198, (S)-N-(3-(2-((1,5-dimethyl-1H-pyrazol-3-yl)amino)-5-methylpyrimidin-4-yl)-1H-indol-7-yl)-2-(3-((2-((2,2,2-trifluoroethyl)amino)pyrimidin-4-yl)oxy)pyrrolidin-1-yl)acetamide]
< 10 | Cc1cnc(Nc2cc(C)n(C)n2)nc1-c1c[nH]c2c(NC(=O)CN3CC[C@H](Oc4ccnc(NCC(C)(F)F)n4)C3)cccc12 [Example 199, (S)-2-(3-((2-((2,2-difluoropropyl)amino)pyrimidin-4-yl)oxy)pyrrolidin-1-yl)-N-(3-(2-((1,5-dimethyl-1H-pyrazol-3-yl)amino)-5-methylpyrimidin-4-yl)-1H-indol-7-yl)acetamide]
< 10 | Cc1cnc(Nc2cc(C)n(C)n2)nc1-c1c[nH]c2c(NC(=O)CN3CC[C@H](Oc4ccnc(NCC(F)F)n4)C3)cccc12 [Example 200, (S)-2-(3-((2-((2,2-difluoroethyl)amino)pyrimidin-4-yl)oxy)pyrrolidin-1-yl)-N-(3-(2-((1,5-dimethyl-1H-pyrazol-3-yl)amino)-5-methylpyrimidin-4-yl)-1H-indol-7-yl)acetamide]
< 10 | Cc1cnc(Nc2cc(C)n(C)n2)nc1-c1c[nH]c2c(NC(=O)CN3CC[C@H](Oc4ccnc(NCCF)n4)C3)cccc12 [Example 202, (S)-N-(3-(2-((1,5-dimethyl-1H-pyrazol-3-yl)amino)-5-methylpyrimidin-4-yl)-1H-indol-7-yl)-2-(3-((2-((2-fluoroethyl)amino)pyrimidin-4-yl)oxy)pyrrolidin-1-yl)acetamide]
< 10 | CCNc1nccc(O[C@H]2CCN(CC(=O)Nc3cccc4c(-c5nc(Nc6cc(C)n(C)n6)ncc5C)c[nH]c34)C2)n1 [Example 203, (S)-N-(3-(2-((1,5-dimethyl-1H-pyrazol-3-yl)amino)-5-methylpyrimidin-4-yl)-1H-indol-7-yl)-2-(3-((2-(ethylamino)pyrimidin-4-yl)oxy)pyrrolidin-1-yl)acetamide]
< 10 | CCCNc1nccc(O[C@H]2CCN(CC(=O)Nc3cccc4c(-c5nc(Nc6cc(C)n(C)n6)ncc5C)c[nH]c34)C2)n1 [Example 204, (S)-N-(3-(2-((1,5-dimethyl-1H-pyrazol-3-yl)amino)-5-methylpyrimidin-4-yl)-1H-indol-7-yl)-2-(3-((2-(propylamino)pyrimidin-4-yl)oxy)pyrrolidin-1-yl)acetamide]
< 10 | CCCCNc1nccc(O[C@H]2CCN(CC(=O)Nc3cccc4c(-c5nc(Nc6cc(C)n(C)n6)ncc5C)c[nH]c34)C2)n1 [Example 205, (S)-2-(3-((2-(butylamino)pyrimidin-4-yl)oxy)pyrrolidin-1-yl)-N-(3-(2-((1,5-dimethyl-1H-pyrazol-3-yl)amino)-5-methylpyrimidin-4-yl)-1H-indol-7-yl)acetamide]
< 10 | Cc1cnc(Nc2cc(C)n(C)n2)nc1-c1c[nH]c2c(NC(=O)CN3CC[C@H](Oc4ccnc(NCCCO)n4)C3)cccc12 [Example 206, (S)-N-(3-(2-((1,5-dimethyl-1H-pyrazol-3-yl)amino)-5-methylpyrimidin-4-yl)-1H-indol-7-yl)-2-(3-((2-((3-hydroxypropyl)amino)pyrimidin-4-yl)oxy)pyrrolidin-1-yl)acetamide]
< 10 | Cc1cnc(Nc2cc(C)n(C)n2)nc1-c1c[nH]c2c(NC(=O)CN3CC[C@H](Oc4ccnc(NCC5CC5)n4)C3)cccc12 [Example 213, (S)-2-(3-((2-((cyclopropylmethyl)amino)pyrimidin-4-yl)oxy)pyrrolidin-1-yl)-N-(3-(2-((1,5-dimethyl-1H-pyrazol-3-yl)amino)-5-methylpyrimidin-4-yl)-1H-indol-7-yl)acetamide]
< 10 | Cc1cnc(Nc2cc(C)n(C)n2)nc1-c1c[nH]c2c(NC(=O)CN3CC[C@H](Oc4ccnc(NCCO)n4)C3)cccc12 [Example 215, (S)-N-(3-(2-((1,5-dimethyl-1H-pyrazol-3-yl)amino)-5-methylpyrimidin-4-yl)-1H-indol-7-yl)-2-(3-((2-((2-hydroxyethyl)amino)pyrimidin-4-yl)oxy)pyrrolidin-1-yl)acetamide]
< 10 | COCCNc1nccc(O[C@H]2CCN(CC(=O)Nc3cccc4c(-c5nc(Nc6cc(C)n(C)n6)ncc5C)c[nH]c34)C2)n1 [Example 216, (S)-N-(3-(2-((1,5-dimethyl-1H-pyrazol-3-yl)amino)-5-methylpyrimidin-4-yl)-1H-indol-7-yl)-2-(3-((2-((2-methoxyethyl)amino)pyrimidin-4-yl)oxy)pyrrolidin-1-yl)acetamide]
< 10 | Cc1cnc(Nc2cc(C)n(C)n2)nc1-c1c[nH]c2c(NC(=O)CN3CC[C@H](Oc4ccnc(NCCN(C)C)n4)C3)cccc12 [Example 217, (S)-N-(3-(2-((1,5-dimethyl-1H-pyrazol-3-yl)amino)-5-methylpyrimidin-4-yl)-1H-indol-7-yl)-2-(3-((2-((2-(dimethylamino)ethyl)amino)pyrimidin-4-yl)oxy)pyrrolidin-1-yl)acetamide]
< 10 | Cc1cnc(Nc2cc(C)n(C)n2)nc1-c1c[nH]c2c(NC(=O)CN3CC[C@H](Oc4ccnc(NCCCN(C)C)n4)C3)cccc12 [Example 218, (S)-N-(3-(2-((1,5-dimethyl-1H-pyrazol-3-yl)amino)-5-methylpyrimidin-4-yl)-1H-indol-7-yl)-2-(3-((2-((3-(dimethylamino)propyl)amino)pyrimidin-4-yl)oxy)pyrrolidin-1-yl)acetamide]

Reference: patent US20240025884A1 (Dong-A ST Co., Ltd., priority 2022, published 2024)
